The test system of the experiment is Mtb strain H37Rv ATCC 27294. As to conditions: 24 h.

The values that follow come from publication PMC5569447 (Iranian Journal of Basic Medical Sciences, 2017).

Peptide text beside a SMILES is read from it. Where only a bound is given, the exact number is not on record here.

For the compound `NC(=O)CC[C@H](NC(=O)[C@@H]1CCCN1C(=O)[C@@H]1CCCN1)C(=O)O` [PPQ] (H-Pro-Pro-Gln-OH), the “MABA MIC” value was greater than 800 µM.
